pEC50: −log10 of the molar value.
Molecular target: T1, P-glycoprotein (PGP/MDR1) (Homo sapiens, UniProt P08183)
T1 construct: gene ABCB1; recombinant human PGP in membrane vesicles (Human MDR1 vesicles)
Experiment: ATPase stimulation (ADP-Glo Max) in human MDR1 vesicles; also Calcein-AM retention in HepG2 cells
Type: biochemical

T1 sequence (P08183 whole entry): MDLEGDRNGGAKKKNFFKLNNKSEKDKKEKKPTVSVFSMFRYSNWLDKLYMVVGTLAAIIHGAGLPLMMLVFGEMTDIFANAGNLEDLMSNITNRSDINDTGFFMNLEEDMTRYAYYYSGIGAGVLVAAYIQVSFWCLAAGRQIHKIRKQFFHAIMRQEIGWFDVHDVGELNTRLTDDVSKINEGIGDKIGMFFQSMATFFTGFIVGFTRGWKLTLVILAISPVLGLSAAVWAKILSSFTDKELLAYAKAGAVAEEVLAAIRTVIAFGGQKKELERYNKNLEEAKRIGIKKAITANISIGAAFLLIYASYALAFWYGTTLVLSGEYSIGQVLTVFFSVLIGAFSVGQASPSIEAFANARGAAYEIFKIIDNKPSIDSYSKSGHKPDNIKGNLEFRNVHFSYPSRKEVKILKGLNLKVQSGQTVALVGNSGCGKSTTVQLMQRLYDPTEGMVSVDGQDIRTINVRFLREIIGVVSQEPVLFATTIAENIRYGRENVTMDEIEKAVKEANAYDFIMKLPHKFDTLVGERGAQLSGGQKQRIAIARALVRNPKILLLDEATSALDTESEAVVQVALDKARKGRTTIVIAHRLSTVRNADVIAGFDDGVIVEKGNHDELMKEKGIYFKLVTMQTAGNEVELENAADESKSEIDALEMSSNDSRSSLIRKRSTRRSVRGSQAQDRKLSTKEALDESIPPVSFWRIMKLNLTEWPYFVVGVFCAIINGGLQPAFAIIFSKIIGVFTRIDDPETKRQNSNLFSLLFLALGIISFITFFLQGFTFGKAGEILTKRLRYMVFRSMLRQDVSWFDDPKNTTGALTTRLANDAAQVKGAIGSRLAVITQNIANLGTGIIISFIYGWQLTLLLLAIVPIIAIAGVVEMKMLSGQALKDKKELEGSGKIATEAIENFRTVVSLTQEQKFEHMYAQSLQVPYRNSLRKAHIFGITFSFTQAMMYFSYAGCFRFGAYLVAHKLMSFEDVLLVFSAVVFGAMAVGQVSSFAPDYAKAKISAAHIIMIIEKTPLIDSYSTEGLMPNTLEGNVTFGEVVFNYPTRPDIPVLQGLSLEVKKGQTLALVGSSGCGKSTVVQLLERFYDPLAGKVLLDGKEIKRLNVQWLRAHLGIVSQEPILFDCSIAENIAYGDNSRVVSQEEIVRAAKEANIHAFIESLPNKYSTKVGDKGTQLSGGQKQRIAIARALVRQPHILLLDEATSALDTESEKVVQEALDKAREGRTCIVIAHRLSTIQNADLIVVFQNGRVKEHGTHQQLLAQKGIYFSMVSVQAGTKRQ

Work on OC[C@H]1O[C@H](O[C@]2(CCl)O[C@H](CCl)[C@@H](O)[C@@H]2O)[C@H](O)[C@@H](O)[C@H]1Cl [Sucr, sucralose] yielded a pEC50 of 10.25.

Reference: PMC10005754, “Non-Nutritive Sweeteners Acesulfame Potassium and Sucralose Are Competitive Inhibitors of the Human P-glycoprotein/Multidrug Resistance Protein 1 (PGP/MDR1)” (Nutrients, 2023)
